Laboratory results from US9255093B2, “Polycyclic HERG activators” (NOVARTIS AG, priority 2014, dated 2016).
Marks after values point to notes of the source that are not given here.

These compounds were tested against hERG (human ether-a-go-go-related gene) potassium channel (Homo sapiens, UniProt Q12809) (assay: QPatch automated patch-clamp hERG activator 4-concentration EC50 assay). Details: increase of hERG tail current amplitude at 7 second (TL7); 3.3 uM (footnote *); hERG stably expressed in CHO cells.
Chain of hERG (human ether-a-go-go-related gene) potassium channel (Q12809 whole entry): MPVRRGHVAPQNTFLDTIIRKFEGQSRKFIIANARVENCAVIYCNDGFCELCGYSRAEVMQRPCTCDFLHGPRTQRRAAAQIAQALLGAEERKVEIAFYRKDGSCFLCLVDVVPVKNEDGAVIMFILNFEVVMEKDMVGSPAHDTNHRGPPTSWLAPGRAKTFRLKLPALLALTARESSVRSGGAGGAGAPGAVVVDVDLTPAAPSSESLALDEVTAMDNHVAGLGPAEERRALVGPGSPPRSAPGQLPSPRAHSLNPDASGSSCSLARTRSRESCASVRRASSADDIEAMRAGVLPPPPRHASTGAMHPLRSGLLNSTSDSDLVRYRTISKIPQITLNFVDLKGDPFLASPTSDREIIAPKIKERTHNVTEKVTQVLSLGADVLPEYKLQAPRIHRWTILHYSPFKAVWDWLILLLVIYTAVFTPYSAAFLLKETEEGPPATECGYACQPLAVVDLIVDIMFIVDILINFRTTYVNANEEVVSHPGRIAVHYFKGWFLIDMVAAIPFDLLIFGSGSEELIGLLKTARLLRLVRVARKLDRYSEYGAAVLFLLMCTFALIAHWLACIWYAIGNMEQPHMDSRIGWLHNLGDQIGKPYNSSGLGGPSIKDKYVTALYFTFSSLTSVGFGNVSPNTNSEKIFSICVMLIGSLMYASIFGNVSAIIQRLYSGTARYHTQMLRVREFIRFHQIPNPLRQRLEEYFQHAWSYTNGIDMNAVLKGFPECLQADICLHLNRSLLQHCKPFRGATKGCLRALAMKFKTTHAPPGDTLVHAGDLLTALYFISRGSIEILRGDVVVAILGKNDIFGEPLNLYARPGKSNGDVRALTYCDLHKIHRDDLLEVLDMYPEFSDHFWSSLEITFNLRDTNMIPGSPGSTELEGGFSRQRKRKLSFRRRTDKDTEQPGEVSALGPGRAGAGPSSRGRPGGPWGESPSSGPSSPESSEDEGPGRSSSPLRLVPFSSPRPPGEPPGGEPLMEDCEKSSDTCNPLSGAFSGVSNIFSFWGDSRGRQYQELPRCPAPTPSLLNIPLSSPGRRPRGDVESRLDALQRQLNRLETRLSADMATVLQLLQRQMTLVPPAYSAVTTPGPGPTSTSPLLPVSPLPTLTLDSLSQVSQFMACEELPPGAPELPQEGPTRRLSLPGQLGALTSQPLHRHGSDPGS
Excerpt: A patch-clamp assay on the QPatch© automated patch clamp system was employed to assesses whether compounds functionally enhance the cardiac delayed rectifier hERG (human ether-a-go-go-related gene) potassium channel. The assay measures electric the current passing through hERG channels that are heterologously expressed in a stable Chinese hamster ovary (CHO) cell line. Channels are opened by a hERG-specific voltage protocol and the compound effect is directly characterized by the activation of the hERG current. EC50 values are obtained from fitting 4-concentration dose response curves (1.1, 3.3, 10 & 30 uM) in triplicates at 4 different sections of the voltage protocol (steady state current amplitude at +10 mV, at +30 mV, peak tail current amplitude and tail current amplitude at 7 second).

SMILES	% change@TL7 (*@3.3 uM)
FC(F)(F)c1ccc(NCc2ccc3cc(-c4nn[nH]n4)oc3c2)cc1Br [Example 3]	121* %
Fc1cc2cc(-c3nnn[nH]3)oc2cc1CNc1ccc(C(F)(F)F)c(Br)c1 [Example 177]	215* %

Same assay, conditions: increase of hERG tail current amplitude at 7 second (TL7); 10 uM; hERG stably expressed in CHO cells

SMILES	% change@TL7@10 uM
CC(C)Oc1ccc(NCc2ccc3cc(-c4nnn[nH]4)oc3c2Cl)cc1C(F)(F)F [Example 171]	291%
CCCc1ccc(NCc2ccc3oc(-c4nnn[nH]4)cc3c2)cc1C(F)(F)F [Example 66]	261%
Fc1c(Cl)cc(NCc2cc3oc(-c4nnn[nH]4)cc3cc2Cl)cc1C(F)(F)F [Example 201]	225%
O=C(O)c1cc2cc(Cl)c(CNc3ccc(OC(F)F)c(C(F)(F)F)c3)cc2o1 [Example 223]	176%
CCCc1ccc(NCc2ccc3c(C(F)(F)F)c(-c4nnn[nH]4)oc3c2)cc1C(F)(F)F [Example 55]	90%
CC(Nc1cc(Cl)c(Cl)c(Cl)c1)c1ccc2oc(-c3nnn[nH]3)cc2c1 (centres unmarked) [Example 73]	132%
O=C(O)c1cc2cc(F)c(CNc3ccc(OCC(F)(F)F)c(Cl)c3)cc2o1 [Example 225]	138%
CCCc1ccc(NCc2cc3oc(-c4nnn[nH]4)cc3cc2Cl)cc1Br [Example 34]	191%
CCc1ccc(NCc2ccc3cc(C(=O)O)oc3c2)cc1C(F)(F)F [Example 100]	156%
FC(F)(F)Oc1cc(Cl)cc(NCc2cc3oc(-c4nnn[nH]4)cc3cc2Cl)c1 [Example 212]	116%
O=C(O)c1cc2ccc(CNc3cccc(N4CCOCC4)c3)cc2o1 [Example 109]	81%
CC(C)Oc1ccc(NCc2cc3oc(-c4nnn[nH]4)cc3cc2F)cc1C(F)(F)F [Example 163]	250%
CC(C)c1ccc(NCc2cc3oc(-c4nnn[nH]4)cc3cc2F)cc1Br [Example 160]	347%
CCCc1ccc(NC(C)c2ccc3oc(-c4nnn[nH]4)cc3c2)cc1C(F)(F)F (centres unmarked) [Example 81]	74%
FC(F)(F)COc1ccc(NCc2cc3oc(-c4nnn[nH]4)cc3cc2Br)cc1C(F)(F)F [Example 164]	308%
O=C(O)c1cc2cc(CNc3ccc(Cl)c(Cl)c3)ccc2o1 [Example 123]	183%
O=C(O)c1cc2ccc(CNc3cc(Cl)c(F)c(C(F)(F)F)c3)cc2o1 [Example 110]	76%
CCCc1cc(NCc2ccc3oc(C(=O)O)cc3c2)ccc1Cl [Example 126]	64%
O=C(O)c1cc2cc(CNc3cc(Cl)c(Cl)c(Cl)c3)ccc2o1 [Example 120]	282%
CCCc1ccc(NCc2ccc3cc(C(=O)O)oc3c2)cc1Cl [Example 93]	212%
Fc1ccc(NCc2cc3oc(-c4nnn[nH]4)cc3cc2F)cc1Cl [Example 215]	132%
CCCc1ccc(NCc2ccc3oc(-c4nnn[nH]4)cc3c2)cc1Cl [Example 71]	193%
FC(F)(F)Oc1cc(NCc2ccc3cc(-c4nn[nH]n4)oc3c2)ccc1Br [Example 48]	123%
Clc1cc(NNCc2ccc3cc(-c4nn[nH]n4)oc3c2)cc(Cl)c1Cl [Example 45]	145%
CCCc1c(C)cc(NCc2ccc3oc(-c4nnn[nH]4)cc3c2)cc1Cl [Example 69]	221%

SMILES	% change@TL7@10 uM
Fc1c(CNc2cc(C(F)(F)F)c(Br)c(C(F)(F)F)c2)ccc2cc(-c3nnn[nH]3)oc12 [Example 151]	308%
FC(F)(F)c1ccc(NCc2cc3cc(-c4nnn[nH]4)oc3cc2Cl)cc1Cl [Example 138]	196%
CCCc1ccc(NCc2cc3cc(-c4nnn[nH]4)oc3cc2F)cc1C(F)(F)F [Example 128]	142%
FC(F)(F)Oc1ccc(NCc2ccc3cc(-c4nn[nH]n4)oc3c2)cc1C(F)(F)F [Example 23]	290%
Fc1cc2cc(-c3nnn[nH]3)oc2cc1CNc1ccc(OCC(F)(F)F)c(Cl)c1 [Example 205]	222%
O=C(O)c1cc2ccc(CNc3ccc(OCC(F)(F)F)c(Cl)c3)cc2o1 [Example 108]	82%
O=C(O)c1cc2ccc(CNc3cc(Cl)c(Cl)c(Cl)c3)cc2o1 [Example 86]	381%
CC(C)Oc1ccc(NCc2ccc3c(C(F)(F)F)c(-c4nnn[nH]4)oc3c2)cc1C(F)(F)F [Example 57]	76%
CC(C)c1ccc(NCc2cc3oc(-c4nnn[nH]4)cc3cc2Cl)cc1C(F)(F)F [Example 207]	297%
Clc1cc(NCc2ccc3cc(-c4nn[nH]n4)oc3c2)cc(Cl)c1Cl [Example 19]	394%
O=C(O)c1cc2ccc(CNc3ccc(OC(F)(F)F)c(Br)c3)cc2o1 [Example 90]	247%
CCCc1ccc(NCc2ccc3oc(-c4nnn[nH]4)cc3c2)cc1C [Example 80]	83%
CCCc1ccc(NCc2ccc3oc(-c4nnn[nH]4)c(C)c3c2)cc1C(F)(F)F [Example 82]	39%
FC(F)(F)c1ccc(NCc2cc3oc(-c4nnn[nH]4)cc3cc2Cl)cc1Cl [Example 198]	187%
FC(F)(F)Oc1ccc(NCc2ccc3oc(-c4nnn[nH]4)cc3c2)cc1Cl [Example 65]	284%
FC(F)Oc1ccc(NCc2cc3oc(-c4nnn[nH]4)cc3cc2Cl)cc1C(F)(F)F [Example 25]	269%
CCCc1ccc(NCc2ccc3c(C)c(-c4nnn[nH]4)oc3c2)cc1C(F)(F)F [Example 51]	99%
FC(F)Oc1ccc(NCc2ccc3cc(-c4nn[nH]n4)oc3c2)cc1Cl [Example 17]	477%
CC(Nc1ccc(SC(F)(F)F)c(Cl)c1)c1ccc2oc(-c3nnn[nH]3)cc2c1 (centres unmarked) [Example 74]	124%
Fc1cc(CNc2ccc(OCC(F)(F)F)c(C(F)(F)F)c2)cc2cc(-c3nnn[nH]3)oc12 [Example 147]	151%
O=C(c1ccc(NCc2ccc3cc(-c4nnn[nH]4)oc3c2)cc1)C(F)(F)F [Example 30]	228%
O=C(O)c1cc2cc(F)c(CNc3ccc(SC(F)(F)F)c(Cl)c3)cc2o1 [Example 228]	140%
FC(F)(F)Sc1ccc(NCc2ccc3cc(-c4nn[nH]n4)oc3c2)cc1Cl [Example 20]	340%
Fc1c(CNc2ccc(OCC(F)(F)F)c(C(F)(F)F)c2)ccc2oc(-c3nnn[nH]3)cc12 [Example 142]	188%
FC(F)(F)COc1ccc(NCc2ccc3cc(-c4nn[nH]n4)oc3c2)cc1Cl [Example 44]	146%

SMILES	% change@TL7@10 uM
FC(F)(F)COc1ccc(NCc2cc3cc(-c4nnn[nH]4)oc3cc2Cl)cc1C(F)(F)F [Example 135]	181%
Fc1cc(NCc2ccc3cc(-c4nn[nH]n4)oc3c2)cc(Br)c1F [Example 35]	180%
Fc1cc2oc(-c3nnn[nH]3)cc2cc1CNc1ccc(OC(F)(F)F)c(C(F)(F)F)c1 [Example 130]	220%
O=C(O)c1cc2cc(F)c(CNc3ccc(OC(F)F)c(C(F)(F)F)c3)cc2o1 [Example 230]	244%
CCc1ccc(NCc2cc3oc(-c4nnn[nH]4)cc3cc2F)cc1Br [Example 181]	322%
CC(C)COc1ccc(NCc2ccc3cc(-c4nn[nH]n4)oc3c2)cc1Br [Example 216]	88%
FC(F)(F)Oc1ccc(NCc2ccc3c(C(F)(F)F)c(-c4nnn[nH]4)oc3c2)cc1Br [Example 47]	131%
CCCc1ccc(NCc2ccc3cc(C(=O)O)oc3c2)cc1C(F)(F)F [Example 95]	193%
O=C(O)c1cc2ccc(CNc3ccc(N4CCOCC4)c(Br)c3)cc2o1 [Example 98]	158%
O=C(O)c1cc2ccc(CNc3ccc(SC(F)(F)F)c(C(F)(F)F)c3)cc2o1 [Example 91]	226%
FC1(F)Oc2ccc(NCc3ccc4cc(-c5nn[nH]n5)oc4c3)cc2C(F)(F)O1 [Example 219]	71%
CCOc1ccc(NCc2cc3oc(-c4nnn[nH]4)cc3cc2Cl)cc1Cl [Example 217]	116%
N#CCOc1ccc(NCc2cc3oc(-c4nnn[nH]4)cc3cc2Br)cc1C(F)(F)F [Example 155]	370%
FC(F)(F)COc1ccc(NCc2cc3oc(-c4nnn[nH]4)cc3cc2Cl)cc1C(F)(F)F [Example 22]	328%
COc1ccc(NCc2ccc3cc(C(=O)O)oc3c2)cc1Cl [Example 115]	41%
Fc1ccc(NCc2ccc3cc(-c4nn[nH]n4)oc3c2)cc1CC(F)(F)F [Example 58]	71%
CCCc1cc(NCc2ccc3oc(C(=O)O)cc3c2)ccc1C(F)(F)F [Example 125]	138%
FC(F)(F)Oc1ccc(NCc2ccc3c(C(F)(F)F)c(-c4nnn[nH]4)oc3c2)cc1Cl [Example 54]	94%
Fc1ccc(NCc2cc3oc(-c4nnn[nH]4)cc3cc2Cl)cc1CC(F)(F)F [Example 221]	81%
O=C(O)c1cc2cc(Cl)c(CNc3ccc(OCC(F)(F)F)c(C(F)(F)F)c3)cc2o1 [Example 224]	222%
Cc1c(-c2nnn[nH]2)oc2ccc(CNc3ccc(SC(F)(F)F)c(Cl)c3)cc12 [Example 70]	200%
Fc1cc2oc(-c3nnn[nH]3)cc2cc1CNc1cc(C(F)(F)F)c(Br)c(C(F)(F)F)c1 [Example 133]	326%
COc1cc2cc(-c3nnn[nH]3)oc2cc1CNc1ccc(OCC(F)(F)F)c(C(F)(F)F)c1 [Example 153]	381%
CCCc1ccc(NCc2ccc3c(C(F)(F)F)c(C(=O)O)oc3c2)cc1C(F)(F)F [Example 111]	65%
CCCc1ccc(NCc2cc3oc(-c4nnn[nH]4)cc3cc2Cl)cc1Cl [Example 12]	85%
